Among the data in paper PMC3877555 (Cell Death & Disease, 2013) are Kd values, retold here.

The structures appear in SMILES notation.

This assay concerns the target HRas-GTP (Homo sapiens, UniProt P01112). In words: SPR. Format: binding.

HRas-GTP, sequence (P01112 1-186): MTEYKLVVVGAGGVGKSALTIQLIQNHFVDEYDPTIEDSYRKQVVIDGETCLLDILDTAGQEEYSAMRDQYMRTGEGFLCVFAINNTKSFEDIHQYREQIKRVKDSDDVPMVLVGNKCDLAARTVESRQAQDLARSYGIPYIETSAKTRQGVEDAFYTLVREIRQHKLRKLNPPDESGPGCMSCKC

In general, Kd refers to a measure of binding affinity in units of concentration. A high value points to a looser complex. For `C[C@@]12C3=CC(=O)OCC3=C[C@H]3OC(=O)[C@](C)([C@H]31)[C@@H](O)[C@H]1O[C@H]12` [WA, Wentilactone A], the Kd is 15.7 µM.
